Measured values taken from patent publication US20250331542A1, “SWEETENER COMPOSITIONS” (Firmenich SA, priority 2022, published 2025).

Legend:
Type in all cases: in vivo, human
[1] = tested on: sweet taste of a water solution containing 4% sucrose; experiment: Sensory panel, sweet taste in sucrose solution; conditions: for Intensity (sweet): Sucrose solution; for sweet enhancing effect for a sucrose solution (in words): summary of Tables 1-12
Description: (§1) Methodology: A panel consisted of 8 to 25 trained panelists evaluating the samples for taste properties (sweet, and/or sweet off-taste such as lingering) on a scale of −5 to 5 (−5 denoted strong masking effect and 5 denoted strong enhancing effect, 0 being the intensity of a reference water solution containing 4% sucrose or 0.02% SG95 stevia product).

[2] = tested on: sweet taste of a water solution containing 0.02% SG95 stevia product; experiment: Sensory panel, sweet taste in SG95 stevia product solution; conditions: for Intensity (sweet): scale -5 to 5, 0 = reference 0.02% SG95; for sweet enhancing effect for an SG95 stevia product solution (in words): summary of Tables 5-6
Description: as §1

[3] = tested on: lingering (sweet off-taste) of a water solution containing 0.02% SG95 stevia product; experiment: Sensory panel, lingering off-taste in SG95 stevia product solution
Description: as §1

[4] = dosage 10 ppm, scale -5 (strong masking) to 5 (strong enhancing), 0 = reference 4% sucrose
[5] = dosage 40 ppm, scale -5 to 5, 0 = reference 4% sucrose

SMILES: O=C1CC(c2ccc(O)cc2)Oc2cc(O)c([C@@H]3O[C@H](CO)[C@@H](O)[C@H](O)[C@H]3O)c(O)c21 (stereo partly drawn) [Compound 1, naringenin 6-C-β-D glucoside]
- Intensity (sweet) [1, 4]: 0.49
- sweet enhancing effect for a sucrose solution (in words) [1]: significant sweet enhancing effect

SMILES: O=C1CC(c2ccc(O)c(O)c2)Oc2cc(O)c([C@@H]3O[C@H](CO)[C@@H](O)[C@H](O)[C@H]3O)c(O)c21 (stereo partly drawn) [Compound 4, eriodictyol 6-C-β-D glucoside]
- Intensity (sweet) [1, 4]: 0.64
- sweet enhancing effect for a sucrose solution (in words) [1]: significant sweet enhancing effect

SMILES: COc1ccc(C2CC(=O)c3c(cc(O)c([C@@H]4O[C@H](CO)[C@@H](O)[C@H](O)[C@H]4O)c3O)O2)cc1O (stereo partly drawn) [Compound 7, hesperetin 6-C-β-D glucoside]
- Intensity (sweet) [1, 4]: 0.57
- sweet enhancing effect for a sucrose solution (in words) [1]: significant sweet enhancing effect

SMILES: COc1ccc(C2CC(=O)c3c(O)c([C@@H]4O[C@H](CO)[C@@H](O)[C@H](O)[C@H]4O)c(O)c([C@@H]4O[C@H](CO)[C@@H](O)[C@H](O)[C@H]4O)c3O2)cc1O (stereo partly drawn) [Compound 9, hesperetin 6,8-di-C-β-D glucoside]
- Intensity (sweet) [1, 4]: 0.31
- sweet enhancing effect for a sucrose solution (in words) [1]: sweet enhancing effect

SMILES: O=C(CCc1ccc(O)cc1)c1c(O)cc(O[C@@H]2O[C@H](CO)[C@@H](O)[C@H](O)[C@H]2O)c([C@@H]2O[C@H](CO)[C@@H](O)[C@H](O)[C@H]2O)c1O [Compound 13, trilobatin 3′-C-β-D glucoside]
- Intensity (sweet) [1, 4]: 0.67
- sweet enhancing effect for a sucrose solution (in words) [1]: significant sweet enhancing effect

SMILES: C[C@@H]1O[C@@H](c2c(O)cc3c(c2O)C(=O)CC(c2ccc(O)cc2)O3)[C@H](O)[C@H](O)[C@H]1O (stereo partly drawn) [Compound 15, naringenin 6-C-rhamnoside]
- sweet enhancing effect for a sucrose solution (in words) [1]: sweet enhancing effect

SMILES: CC1OC(c2c(O)cc3c(c2O)C(=O)CC(c2ccc(O)cc2)O3)C(O)C(O)C1O (stereo not drawn) [Compound 16, naringenin 6-C-rhamnoside]
- sweet enhancing effect for a sucrose solution (in words) [1]: sweet enhancing effect

SMILES: O=c1cc(-c2ccc(O)c(O)c2)oc2cc(O)c([C@@H]3O[C@H](CO)[C@@H](O)[C@H](O)[C@H]3O)c(O)c12 [Compound 17, Isoorientin]
- Intensity (sweet) [1, 5]: 0.25
- sweet enhancing effect for a sucrose solution (in words) [1]: sweet enhancing effect

SMILES: O=c1cc(-c2ccc(O)c(O)c2)oc2c([C@@H]3O[C@H](CO)[C@@H](O)[C@H](O)[C@H]3O)c(O)cc(O)c12 [Compound 18, orientin]
- Intensity (sweet) [1, 5]: 0.50
- sweet enhancing effect for a sucrose solution (in words) [1]: significant sweet enhancing effect

SMILES: O=C(CCc1ccc(O)c(O)c1)c1c(O)cc(O)c([C@@H]2O[C@H](CO)[C@@H](O)[C@H](O)[C@H]2O)c1O [Compound 20, aspalathin]
- Intensity (sweet) [1, 4]: 0.42
- sweet enhancing effect for a sucrose solution (in words) [1]: significant sweet enhancing effect

SMILES: O=C(CCc1ccc(O)cc1)c1c(O)cc(O)c([C@@H]2O[C@H](CO)[C@@H](O)[C@H](O)[C@H]2O)c1O [Compound 21, nothofagin]
- Intensity (sweet) [1, 4]: 0.46
- sweet enhancing effect for a sucrose solution (in words) [1]: significant sweet enhancing effect
- Intensity (sweet) ([2]; dosage 20 ppm): 0.25
- sweet enhancing effect for an SG95 stevia product solution (in words) [2]: sweet enhancing effect

SMILES: O=C(CCc1ccc(O)cc1)c1c(O)c([C@@H]2O[C@H](CO)[C@@H](O)[C@H](O)[C@H]2O)c(O)c([C@@H]2O[C@H](CO)[C@@H](O)[C@H](O)[C@H]2O)c1O [Compound 22, Phloretin-3′,5′-di-C-β-D-glucoside]
- Intensity (sweet) [1, 5]: 0.23
- sweet enhancing effect for a sucrose solution (in words) [1]: sweet enhancing effect
- Intensity (lingering) ([3]; dosage 40 ppm, scale -5 (strong masking) to 5, 0 = reference 0.02% SG95): −0.33
- off taste masking effect for an SG95 stevia product solution (in words) ([3]; lingering): lingering masking
- Intensity (sweet) ([2]; dosage 40 ppm): 0.25
- sweet enhancing effect for an SG95 stevia product solution (in words) [2]: sweet enhancing effect

SMILES: O=c1cc(-c2ccc(O)cc2)oc2c([C@@H]3O[C@H](CO)[C@@H](O)[C@H](O)[C@H]3O)c(O)cc(O)c12 [Compound 23]
- Intensity (sweet) [1, 4]: 0.50
- sweet enhancing effect for a sucrose solution (in words) [1]: significant sweet enhancing effect
